Activity calls are given as the source filed them. No cut-off for these calls is given here.
Assays:
[1] = molecular target: Programmed cell death protein 1/Programmed cell death 1 ligand 1 (Homo sapiens, UniProt Q9NZQ7); test: Inhibition of PD-1/PD-L1 interaction (unknown origin) incubated for 1 hr by HTRF assay; type: protein-complex assay
[2] = molecular target: Programmed cell death 1 ligand 1 (Homo sapiens, UniProt Q9NZQ7); test: Binding affinity to human PD-L1 expressed in Escherichia coli strain BL21 assessed as dissociation constant by NMR spectroscopic analysis
PBMC = test: Cytotoxicity against human PBMC cells assessed as reduction in cell viability at 1 to 4 uM measured after 48 hrs by CCK-8 assay; type: toxicity, cell-based; conditions: dose 1-4 µM
MC-38 [3] = test: Antitumor activity against mouse MC38 cells expressing human PD-L1 protein assessed as reduction in cell viability measured after 48 hrs by CCK-8 assay; type: functional, cell-based; conditions: MC-38, 48 h
[4] = AUC (0 to t) in Sprague-Dawley rat at 40 mg/kg, IG measured upto 48 hrs by LC-MS/MS analysis; type: ADME, organism-based; design: dose 40 mg/kg, time < 48 hrs, route ig; conditions: in vivo, po
[5] = AUC (0 to t) in Sprague-Dawley rat at 10 mg/kg, ip measured upto 48 hrs by LC-MS/MS analysis; type: ADME, organism-based; design: time < 48 hrs, dose 10 mg/kg, route ip; conditions: in vivo
[6] = AUC (0 to infinity) in Sprague-Dawley rat at 8 mg/kg, iv measured upto 48 hrs by LC-MS/MS analysis; type: ADME, organism-based; design: time < 48 hrs, dose 8 mg/kg, route iv; conditions: in vivo
[7] = AUC (0 to infinity) in Sprague-Dawley rat at 40 mg/kg, IG measured upto 48 hrs by LC-MS/MS analysis; type: ADME, organism-based; design: time < 48 hrs, dose 40 mg/kg, route ig; conditions: Sprague-Dawley, in vivo, po
[8] = AUC (0 to infinity) in Sprague-Dawley rat at 10 mg/kg, ip measured upto 48 hrs by LC-MS/MS analysis; type: ADME, organism-based; design: time < 48 hrs, dose 10 mg/kg, route ip; conditions: in vivo
[9] = Tmax in Sprague-Dawley rat at 8 mg/kg, iv measured upto 48 hrs by LC-MS/MS analysis; type: ADME, organism-based; conditions: in vivo
[10] = Tmax in Sprague-Dawley rat at 40 mg/kg, IG measured upto 48 hrs by LC-MS/MS analysis; type: ADME, organism-based; conditions: in vivo, po
[11] = Tmax in Sprague-Dawley rat at 10 mg/kg, ip measured upto 48 hrs by LC-MS/MS analysis; type: ADME, organism-based; conditions: in vivo
[12] = Half life in Sprague-Dawley rat at 40 mg/kg, IG measured upto 48 hrs by LC-MS/MS analysis; type: ADME, organism-based; conditions: Sprague-Dawley, in vivo, po
[13] = Half life in Sprague-Dawley rat at 10 mg/kg, ip measured upto 48 hrs by LC-MS/MS analysis; type: ADME, organism-based; conditions: in vivo
[14] = Clearance in Sprague-Dawley rat at 8 mg/kg, iv measured upto 48 hrs by LC-MS/MS analysis; type: ADME, organism-based; conditions: Sprague-Dawley, in vivo
[15] = Clearance in Sprague-Dawley rat at 10 mg/kg, ip measured upto 48 hrs by LC-MS/MS analysis; type: ADME, organism-based; conditions: in vivo
[16] = Bioavailability in Sprague-Dawley rat at 40 mg/kg, IG measured upto 48 hrs by LC-MS/MS analysis; type: ADME, organism-based; conditions: in vivo, po
MC-38 [17] = test: Antitumor activity against mouse MC38 cells implanted in PD-1/PD-L1 humanized C57/BL6 mouse assessed as tumor growth inhibition at 50 mg/kg, IG qd administered on day 5 measured after 2 weeks; type: functional; conditions: MC-38, po, 336 h, read-out: TGI
[18] = Toxicity in PD-1/PD-L1 humanized C57/BL6 mouse implanted with mouse MC38 cells assessed as mortality at 50 mg/kg, IG qd administered on day 5 measured after 2 weeks; type: organism-based, MC-38; conditions: in vivo, po, 336 h
MC-38 [19] = test: Antitumor activity against mouse MC38 cells implanted in PD-1/PD-L1 humanized C57/BL6 mouse assessed as reduction in tumor growth at 50 mg/kg, IG qd administered on day 5 measured after 2 weeks; type: functional, organism-based
MC-38 [20] = test: Immunomodulatory activity in mouse MC38 cells implanted in PD-1/PD-L1 humanized C57/BL6 mouse assessed as increase in CXCL9 mRNA expression level in tumor at 50 mg/kg, IG qd administered on day 5 measured after 2 weeks by RT-PCR analysis; type: functional, organism-based
MC-38 [21] = test: Immunomodulatory activity in mouse MC38 cells implanted in PD-1/PD-L1 humanized C57/BL6 mouse assessed as increase in CXCL10 mRNA expression level in tumor at 50 mg/kg, IG qd administered on day 5 measured after 2 weeks by RT-PCR analysis; type: functional, organism-based
MC-38 [22] = test: Antitumor activity against mouse MC38 cells implanted in PD-1/PD-L1 humanized C57/BL6 mouse assessed as increase in perforin levels at 50 mg/kg, IG qd administered on day 5 measured after 2 weeks by microscopic analysis; type: functional, organism-based
[23] = Toxicity in PD-1/PD-L1 humanized C57/BL6 mouse implanted with mouse MC38 cells assessed as morphological change in heart at 50 mg/kg, IG qd administered on day 5 measured after 2 weeks by hematoxylin-eosin staining based inverted fluorescent microscopic analysis; type: organism-based, MC-38; conditions: in vivo, po, 336 h
[24] = Toxicity in PD-1/PD-L1 humanized C57/BL6 mouse implanted with mouse MC38 cells assessed as morphological change in liver at 50 mg/kg, IG qd administered on day 5 measured after 2 weeks by hematoxylin-eosin staining based inverted fluorescent microscopic analysis; type: organism-based, MC-38; conditions: in vivo, po, 336 h
[25] = Toxicity in PD-1/PD-L1 humanized C57/BL6 mouse implanted with mouse MC38 cells assessed as morphological change in spleen at 50 mg/kg, IG qd administered on day 5 measured after 2 weeks by hematoxylin-eosin staining based inverted fluorescent microscopic analysis; type: organism-based, MC-38; conditions: in vivo, po, 336 h
[26] = Toxicity in PD-1/PD-L1 humanized C57/BL6 mouse implanted with mouse MC38 cells assessed as morphological change in lung at 50 mg/kg, IG qd administered on day 5 measured after 2 weeks by hematoxylin-eosin staining based inverted fluorescent microscopic analysis; type: organism-based, MC-38; conditions: in vivo, po, 336 h
[27] = Toxicity in PD-1/PD-L1 humanized C57/BL6 mouse implanted with mouse MC38 cells assessed as morphological change in kidney at 50 mg/kg, IG qd administered on day 5 measured after 2 weeks by hematoxylin-eosin staining based inverted fluorescent microscopic analysis; type: organism-based, MC-38; conditions: in vivo, po, 336 h
[28] = Nephrotoxicity in PD-1/PD-L1 humanized C57/BL6 mouse implanted with mouse MC38 cells assessed as effect on creatinine level in serum at 50 mg/kg, IG qd administered on day 5 measured after 2 weeks; type: toxicity, organism-based, MC-38; conditions: in vivo, po, 336 h
[29] = Hepatotoxicity in PD-1/PD-L1 humanized C57/BL6 mouse implanted with mouse MC38 cells assessed as effect on AST level in serum at 50 mg/kg, IG qd administered on day 5 measured after 2 weeks; type: toxicity, organism-based, MC-38; conditions: in vivo, po, 336 h
[30] = Hepatotoxicity in PD-1/PD-L1 humanized C57/BL6 mouse implanted with mouse MC38 cells assessed as effect on ALB level in serum at 50 mg/kg, IG qd administered on day 5 measured after 2 weeks; type: toxicity, organism-based, MC-38; conditions: in vivo, po, 336 h
[31] = Hepatotoxicity in PD-1/PD-L1 humanized C57/BL6 mouse implanted with mouse MC38 cells assessed as effect on total protein level in serum at 50 mg/kg, IG qd administered on day 5 measured after 2 weeks; type: toxicity, organism-based, MC-38; conditions: in vivo, po, 336 h
MC-38 [32] = test: Antitumor activity against mouse MC38 cells implanted in PD-1/PD-L1 humanized C57/BL6 mouse assessed as increase in CD8 positive CD4 positive ratio in tumor at 50 mg/kg, IG qd administered on day 5 measured after 2 weeks by flow cytometry analysis; type: functional, organism-based

Chain of Programmed cell death protein 1/Programmed cell death 1 ligand 1 (Q15116 whole entry): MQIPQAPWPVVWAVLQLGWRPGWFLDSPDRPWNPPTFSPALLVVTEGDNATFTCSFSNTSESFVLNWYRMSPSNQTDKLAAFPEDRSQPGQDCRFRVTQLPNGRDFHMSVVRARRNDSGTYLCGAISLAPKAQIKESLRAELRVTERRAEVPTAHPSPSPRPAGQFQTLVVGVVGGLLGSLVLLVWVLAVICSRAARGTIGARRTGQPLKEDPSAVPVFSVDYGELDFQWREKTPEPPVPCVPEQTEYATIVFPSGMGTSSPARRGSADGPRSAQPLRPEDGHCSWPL
Chain of Programmed cell death protein 1/Programmed cell death 1 ligand 1 (Q9NZQ7 whole entry): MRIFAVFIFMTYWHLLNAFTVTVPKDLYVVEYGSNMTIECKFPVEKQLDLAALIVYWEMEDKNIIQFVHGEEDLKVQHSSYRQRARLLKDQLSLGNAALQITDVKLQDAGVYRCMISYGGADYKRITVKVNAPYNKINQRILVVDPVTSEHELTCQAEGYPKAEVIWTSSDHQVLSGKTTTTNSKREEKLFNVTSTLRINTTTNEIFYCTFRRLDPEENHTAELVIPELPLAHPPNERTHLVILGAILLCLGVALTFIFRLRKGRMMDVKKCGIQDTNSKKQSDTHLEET
Chain of Programmed cell death 1 ligand 1 (Q9NZQ7 whole entry): as above

For `N#Cc1cncc(COc2cc(OCc3cccc(-c4ccccc4F)c3Cl)ccc2CNCCO)c1`, the IC50 [1] was 24 µM, the Kd [2] was < 1 µM and the Activity (PBMC) was “Non-Toxic”. For the same molecule, the IC50 (MC-38 [3]) was > 8 µM, the AUC(0-t) at 48 h [4] was 63600 ng·h/mL and the AUC(0-t) at 48 h [5] was 9730 ng·h/mL. The AUC(0-inf) [6] was 13400 ng·h/mL, the AUC(0-inf) [7] was 65500 ng·h/mL and the AUC(0-inf) [8] was 10500 ng·h/mL. For the same molecule, the Tmax [9] was 4.8 min, the Tmax [10] was 1.75 h and the Tmax [11] was 0.88 h. The half-life [12] was 1.72 h, the half-life [13] was 2.43 h and the clearance [14] was 10 mL/min/kg. The CL/F [15] was 20.2 mL/min/kg, the bioavailability [16] was 114% and the inhibition in vivo at 50 mg/kg (MC-38 [17]) was 55.2%. The Activity [18] was “Non-Toxic”, the Activity (MC-38 [19]) was “Active” and the Activity (MC-38 [20]) was “Active”. For the same molecule, the Activity (MC-38 [21]) was “Active”, the Activity (MC-38 [22]) was “Active” and the Activity [23] was “Non-Toxic”. The Activity [24] was “Non-Toxic”, the Activity [25] was “Non-Toxic” and the Activity [26] was “Non-Toxic”. The Activity [27] was “Non-Toxic”, the Activity [28] was “Non-Toxic” and the Activity [29] was “Non-Toxic”. For the same molecule, the Activity [30] was “Non-Toxic”, the Activity [31] was “Non-Toxic” and the Activity (MC-38 [32]) was “Active”.

Source: ChEMBL document CHEMBL5360625, “Design, Synthesis, and Antitumor Activity Evaluation of 2-Arylmethoxy-4-(2,2'-dihalogen-substituted biphenyl-3-ylmethoxy) Benzylamine Derivatives as Potent PD-1/PD-L1 Inhibitors” (J Med Chem, 2023)
